The text below walks through data of US8883782B2, “Spiro-tetracyclic ring compounds as beta-secretase modulators and methods of use” (Amgen Inc., priority 2010, dated 2014).

Read-outs that look alike come from different tables or passages of the source.

The target of assay [1] is Beta Secretase enzyme (BACE) (Homo sapiens, UniProt P56817). Put plainly: In vitro enzymatic BACE FRET (fluorescence resonance energy transfer) assay. Type of assay: biochemical. Particulars: average IC50, enzyme assay; read-out: BACE 1 FRET assay. An outline of the steps: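 Cleavage of a 50 nM fluorophore/quencher peptide FRET substrate by BACE for 1 h in 0.05 M acetate pH 4.2, 10% DMSO, 100 uM genapol. Reaction stopped with Tris to neutral pH before fluorescence reading.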
Chain of Beta Secretase enzyme (BACE) (P56817 46-501, species assumed): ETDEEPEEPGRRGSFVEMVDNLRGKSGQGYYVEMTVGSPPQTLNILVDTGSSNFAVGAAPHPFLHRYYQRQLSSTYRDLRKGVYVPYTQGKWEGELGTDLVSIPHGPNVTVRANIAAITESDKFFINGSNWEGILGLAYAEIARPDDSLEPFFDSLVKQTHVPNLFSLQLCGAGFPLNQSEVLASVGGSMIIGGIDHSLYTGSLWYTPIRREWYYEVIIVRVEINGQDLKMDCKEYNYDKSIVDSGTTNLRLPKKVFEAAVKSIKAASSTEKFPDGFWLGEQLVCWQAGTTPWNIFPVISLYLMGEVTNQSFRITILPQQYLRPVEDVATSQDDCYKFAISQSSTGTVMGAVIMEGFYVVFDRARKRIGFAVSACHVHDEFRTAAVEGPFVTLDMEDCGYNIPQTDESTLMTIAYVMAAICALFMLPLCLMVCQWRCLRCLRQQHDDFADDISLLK

Assay [2] deals with Aβ40 in conditioned medium of cells stably expressing Amyloid Precursor Protein (APP). Put plainly: In vitro BACE cell-based assay (Aβ40 in conditioned medium, sandwich ELISA). Particulars: Homo sapiens, read-out: HEK cell assay. In short, it runs like this:
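Quantification relied on pAb40/6E10 sandwich ELISA with Europium fluorescence counts, and IC50 was fitted versus concentration.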
On the technique in general: ELISA stands for enzyme-linked immunosorbent assay.

The mark [3] stands for this setting: HEK293, average IC50, HEK cells.

Turning to `CC1(C#Cc2cnc3c(c2)[C@@]2(COC(N)=N2)c2cc(-c4cncc(F)c4)c(F)cc2O3)COC1` [Example 624, (5R)-8-fluoro-7-(5-fluoro-3-pyridinyl)-3-((3-methyl-3-oxetanyl)ethynyl)spiro[chromeno[2,3-b]pyridine-5,4′-[1,3]oxazol]-2′-amine], the results for the IC50 in assay [1] and in assay [2] (setting [3]) were 986 nM and 762 nM, respectively.
For `NC1=N[C@@]2(CO1)c1cc(OCCCc3ccccc3)ccc1Oc1ncc(-c3cccnc3)cc12` [Example 981, (5S)-7-(3-phenylpropoxy)-3-(3-pyridinyl)spiro[chromeno[2,3-b]pyridine-5,4′-[1,3]oxazol]-2′-amine], the IC50 in assay [1] is 22.2 nM; in assay [2] (HEK293, average IC50), 262 nM.
For the compound `NC1=N[C@@]2(CO1)c1cc(-c3cccnc3F)ccc1Oc1c(F)cc(N3CC4(COC4)C3)cc12` [Example 1087, (4S)-4′-fluoro-7′-(2-fluoro-3-pyridinyl)-2′-(2-oxa-6-azaspiro[3.3]hept-6-yl)spiro[1,3-oxazole-4,9′-xanthen]-2-amine], the IC50 came to 2 nM in assay [1] and 2 nM in assay [2] (HEK293, average IC50).
Turning to `CC(C)(C)COc1cc2c(cn1)Oc1ccc(-c3cccnc3F)cc1C21COC(N)=N1` (stereo not shown) [Example 102, 7-(2-fluoropyridin-3-yl)-3-(neopentyloxy)-5′H-spiro[chromeno[2,3-c]pyridine-5,4′-oxazol]-2′-amine 2,2,2-trifluoroacetate], the values for the IC50 in assay [1] and in assay [2] (setting [3]) were 1.1 nM and 26.2 nM, respectively.
As to `NC1=N[C@@]2(CS1)c1cc(-c3cccnc3)c(F)cc1Oc1c(F)cc(C3=CCOCC3)cc12` [Example 881, (4S)-7′-(3,6-dihydro-2H-pyran-4-yl)-3′,5′-difluoro-2′-(3-pyridinyl)spiro[1,3-thiazole-4,9′-xanthen]-2-amine], the IC50 stood at 0.5 nM in assay [1] and 23 nM in assay [2] (setting [3]).
Consider `NC1=N[C@@]2(CS1)c1cc(-c3cccnc3F)ccc1Oc1cnc(C3CCOCC3)cc12` [Example 930, (5S)-7-(2-fluoro-3-pyridinyl)-3-(tetrahydro-2H-pyran-4-yl)spiro[chromeno[2,3-c]pyridine-5,4′-[1,3]thiazol]-2′-amine], for which the IC50 turned out to be 4 nM in assay [1] and 57 nM in assay [2] (setting [3]).
On to `CC(C)(C#N)COc1cc(F)c2c(c1)[C@]1(COC(N)=N1)c1cc(-c3cccnc3F)c(F)cc1O2` [Example 862, 3-(((4S)-2-amino-4′,6′-difluoro-7′-(2-fluoro-3-pyridinyl)spiro[1,3-oxazole-4,9′-xanthen]-2′-yl)oxy)-2,2-dimethylpropanenitrile], for which the IC50 in assay [1] was found to be 0.3 nM; in assay [2] (setting [3]) it was 11 nM.
As to `CC#Cc1cncc(-c2ccc3c(c2)[C@@]2(COC(N)=N2)c2cc(C#CC(C)(C)O)cnc2O3)c1` [Example 945, 4-((5S)-2′-amino-7-(5-(1-propyn-1-yl)-3-pyridinyl)spiro[chromeno[2,3-b]pyridine-5,4′-[1,3]oxazol]-3-yl)-2-methyl-3-butyn-2-ol], the values for the IC50 in assay [1] and in assay [2] (setting [3]) were 0.8 nM and 2 nM, respectively.
In the case of `NC1=N[C@@]2(CO1)c1cc(-c3cccc(Cl)c3)ccc1Oc1cnc(Cl)cc12` [Example 528, (5S)-3-chloro-7-(3-chlorophenyl)spiro[chromeno[2,3-c]pyridine-5,4′-[1,3]oxazol]-2′-amine], the IC50 in assay [1] was found to be 55.3 nM; in assay [2] (setting [3]) it was 2310 nM.
For `CC(C)(C)COc1ccc2c(c1)[C@]1(COC(N)=N1)c1c(ccc(-c3cncnc3)c1F)O2` [Example 515, (4R)-7′-(2,2-dimethylpropoxy)-1′-fluoro-2′-(5-pyrimidinyl)spiro[1,3-oxazole-4,9′-xanthen]-2-amine] the same measures were 1.3 nM and 28.5 nM.
For the compound `CC1(C)C[C@@H](c2cnc3c(c2)[C@]2(COC(N)=N2)c2cc(-c4cccnc4F)ccc2O3)CCO1` [Example 470, (5S)-3-((4S)-2,2-dimethyltetrahydro-2H-pyran-4-yl)-7-(2-fluoro-3-pyridinyl)spiro[chromeno[2,3-b]pyridine-5,4′-[1,3]oxazol]-2′-amine], the results for the IC50 in assay [1] and in assay [2] (setting [3]) were 3.3 nM and 14.9 nM, respectively.
For `CC#Cc1cncc(-c2ccc3c(c2)[C@@]2(COC(N)=N2)c2cc(-c4ccc(C)nc4)nc(F)c2O3)c1` [Example 741, (5S)-1-fluoro-3-(6-methyl-3-pyridinyl)-7-(5-(1-propyn-1-yl)-3-pyridinyl)spiro[chromeno[2,3-c]pyridine-5,4′-[1,3]oxazol]-2′-amine], the IC50 in assay [1] turned out to be 0.4 nM; in assay [2] (HEK293, average IC50), 4 nM.
For `NC1=N[C@@]2(CO1)c1cc(-c3cccnc3F)ccc1Oc1cc(F)c(C3CCOCC3)cc12` [Example 334, (4S)-3′-fluoro-7′-(2-fluoro-3-pyridinyl)-2′-(tetrahydro-2H-pyran-4-yl)spiro[1,3-oxazole-4,9′-xanthen]-2-amine], the IC50 in assay [1] was 18.9 nM; in assay [2] (HEK293, average IC50), 67.6 nM.
Regarding `Cc1noc(C)c1-c1cccc(-c2ccc3c(c2)[C@@]2(COC(N)=N2)c2cc(C4=CCOCC4)ncc2O3)c1` [Example 245, (5S)-3-(3,6-dihydro-2H-pyran-4-yl)-7-(3-(3,5-dimethyl-4-isoxazolyl)phenyl)spiro[chromeno[2,3-c]pyridine-5,4′-[1,3]oxazol]-2′-amine], the IC50 in assay [1] worked out at 23 nM; in assay [2] (HEK293, average IC50), 529 nM.
As for `CC1(COc2cc(F)c3c(c2)[C@]2(CSC(N)=N2)c2cc(-c4cccnc4)c(F)cc2O3)COC1` [Example 878, (4S)-3′,5′-difluoro-7′-((3-methyl-3-oxetanyl)methoxy)-2′-(3-pyridinyl)spiro[1,3-thiazole-4,9′-xanthen]-2-amine], the IC50 in assay [1] turned out to be 0.4 nM; in assay [2] (setting [3]), 8 nM.
As for `CC1(C#Cc2cnc3c(c2)[C@]2(COC(N)=N2)c2cc(OCc4ccccc4)ccc2O3)COC1` [Example 973, (5S)-7-(benzyloxy)-3-((3-methyl-3-oxetanyl)ethynyl)spiro[chromeno[2,3-b]pyridine-5,4′-[1,3]oxazol]-2′-amine], the IC50 in assay [1] stood at 187 nM; in assay [2] (HEK293, average IC50), 1370 nM.
Take `COc1nccc(-c2cc(F)c3c(c2)[C@]2(COC(N)=N2)c2cc(-c4cccnc4F)ccc2O3)n1` [Example 607, (4S)-4′-fluoro-7′-(2-fluoro-3-pyridinyl)-2′-(2-methoxy-4-pyrimidinyl)spiro[1,3-oxazole-4,9′-xanthen]-2-amine]: the IC50 was determined as 5.1 nM in assay [1] and 70 nM in assay [2] (setting [3]).
Regarding `CC1(C)CC(c2cc3c(cn2)Oc2ccc(-c4cncc(F)c4)cc2[C@@]32COC(N)=N2)=CCO1` [Example 371, (5S)-3-(2,2-dimethyl-3,6-dihydro-2H-pyran-4-yl)-7-(5-fluoro-3-pyridinyl)spiro[chromeno[2,3-c]pyridine-5,4′-[1,3]oxazol]-2′-amine], the IC50 came to 2 nM in assay [1] and 10.7 nM in assay [2] (HEK293, average IC50).
On to `NC1=N[C@@]2(CO1)c1cc(-c3cncc(N4CC[C@H](F)C4)c3)ccc1Oc1cnc(Cl)cc12` [Example 428, (5S)-3-chloro-7-(5-((3S)-3-fluoro-1-pyrrolidinyl)-3-pyridinyl)spiro[chromeno[2,3-c]pyridine-5,4′-[1,3]oxazol]-2′-amine], for which the IC50 in assay [1] came out at 604 nM; in assay [2] (setting [3]), 2200 nM.
Turning to `NC1=N[C@@]2(CO1)c1cc(-c3c(F)ccnc3F)ccc1Oc1cnc([C@@H]3CCCCO3)cc12` [Example 915, (5S)-7-(2,4-difluoro-3-pyridinyl)-3-((2S)-tetrahydro-2H-pyran-2-yl)spiro[chromeno[2,3-c]pyridine-5,4′-[1,3]oxazol]-2′-amine], the IC50 came to 2.5 nM in assay [1] and 23 nM in assay [2] (setting [3]).
Take `CC1(C#Cc2cnc3c(c2)[C@]2(COC(N)=N2)c2c(ccc(-c4cncnc4)c2F)O3)COC1` [Example 344, (5R)-6-fluoro-3-((3-methyl-3-oxetanyl)ethynyl)-7-(5-pyrimidinyl)spiro[chromeno[2,3-b]pyridine-5,4′-[1,3]oxazol]-2′-amine]: the IC50 came out at 1 nM in assay [1] and 6.5 nM in assay [2] (HEK293, average IC50).
`NC1=N[C@@]2(CO1)c1cc(-c3cccnc3F)ccc1Oc1cnc(-c3ccncc3F)cc12` [Example 572, (5S)-7-(2-fluoro-3-pyridinyl)-3-(3-fluoro-4-pyridinyl)spiro[chromeno[2,3-c]pyridine-5,4′-[1,3]oxazol]-2′-amine]: the IC50 in assay [1] came to 11.8 nM; in assay [2] (setting [3]), 148 nM.
With `Cc1cc(-c2ccc3c(c2)[C@@]2(COC(N)=N2)c2cc(C4=CCOCC4)ncc2O3)cnc1F` [Example 228, (5S)-3-(3,6-dihydro-2H-pyran-4-yl)-7-(6-fluoro-5-methyl-3-pyridinyl)spiro[chromeno[2,3-c]pyridine-5,4′-[1,3]oxazol]-2′-amine], the IC50 worked out at 2.5 nM in assay [1] and 14 nM in assay [2] (HEK293, average IC50).
For `NC1=N[C@]2(CO1)c1cc(-c3ccnc(F)c3)ccc1Oc1cnc(-c3cncnc3)cc12` [Example 393, (5R)-7-(2-fluoro-4-pyridinyl)-3-(5-pyrimidinyl)spiro[chromeno[2,3-c]pyridine-5,4′-[1,3]oxazol]-2′-amine], the IC50 in assay [1] amounted to 63.3 nM; in assay [2] (setting [3]), 224 nM.
In the case of `NC1=N[C@@]2(CS1)c1cc(-c3cccnc3F)ccc1Oc1ncc(-c3cccnc3)cc12` [Example 765, (5S)-7-(2-fluoro-3-pyridinyl)-3-(3-pyridinyl)spiro[chromeno[2,3-b]pyridine-5,4′-[1,3]thiazol]-2′-amine], the IC50 in assay [1] worked out at 1 nM; in assay [2] (HEK293, average IC50), 8 nM.
On to `N#Cc1cccc(-c2ccc3c(c2)[C@@]2(COC(N)=N2)c2cc(N4CCOCC4)ncc2O3)c1` [Example 895, 3-((5S)-2′-amino-3-(4-morpholinyl)spiro[chromeno[2,3-c]pyridine-5,4′-[1,3]oxazol]-7-yl)benzonitrile], for which the IC50 in assay [1] was 2.4 nM; in assay [2] (setting [3]), 8 nM.
